Reference: patent EP0061208A1, “Insecticidal control of ectoparasites” (JANSSEN PHARMACEUTICA N.V., priority 1981, dated 1982)

Tested on: lice
Assay: in-vivo experiment: single pour-on application to louse-infested sheep, evaluation of louse infestation
Parameters: key: +: numphs or adults were detected; -: no live lice were found
Conditions: single pour-on along the back, solution 5% by weight in 2-(Z-butoxyethoxy)ethanol; for louse infestation, weeks 1: after 1 week; for louse infestation, weeks 2: after 2 weeks; for louse infestation, weeks 3: after 3 weeks; for louse infestation, weeks 4: after 4 weeks; for louse infestation, weeks 6.5: after 6.5 weeks
Procedure: The efficacy of the ectoparasiticidal method and compositions of the present invention is illustrate by the following in-vivo experiment: • 4 moderately louse-infested sheep were given a single pour-on application of a solution comprising 5% by weight of cypermetrin • in 2-(Z-butoxyethoxy)ethanol. • The louse infestation was evaluated after 1, 2, 3, 4 and 6. 5 weeks. The evaluation of the louse-infestation is illustrated in table 1 wherein • + means that numphs or adults were detected, and • - means that no live lice were found.

CC1(C)C(C=C(Cl)Cl)C1C(=O)OC(C#N)c1cccc(Oc2ccccc2)c1 (stereo not shown) [cypermetrin, [[cyano(3-phenoxyphenyl)]methyl] 2-(2,2-dichloroethenyl)-3,3-dimethylcyclopropanecarboxylate]
-: louse infestation, weeks 6.5 (dose 10 mg/kg) | louse infestation, weeks 1 (dose 20 mg/kg) | louse infestation, weeks 2 (dose 20 mg/kg) | louse infestation, weeks 3 (dose 20 mg/kg) | louse infestation, weeks 4 (dose 20 mg/kg) | louse infestation, weeks 6.5 (dose 20 mg/kg)
+ and -: louse infestation, weeks 1 (dose 10 mg/kg, 10 mg/kg) | louse infestation, weeks 2 (dose 10 mg/kg, 10 mg/kg) | louse infestation, weeks 3 (dose 10 mg/kg, 10 mg/kg) | louse infestation, weeks 4 (dose 10 mg/kg, 10 mg/kg)
